Laboratory results: patent US20190127366A1 (LifeSci Pharmaceuticals, Inc., priority 2015, published 2019)

Assays:
[1] = test system: alternative pathway (AP) hemolytic activity; assay: AP hemolysis inhibition assay; format: cell-based; details: Erythrocyte, 1 h; Normal Human Serum, chicken or rabbit erythrocytes, 60 min at 37° C., OD 414 nm
Method: The ability of the compounds disclosed herein to inhibit alternative pathway (AP) hemolytic activity was determined. Red blood cells (RBC), chicken or rabbit erythrocyctes (SbjBio), were washed three time using assay buffer containing 0.1% gelatin, 5 mM Veronal, 145 mM NaCl, 0.025% NaN3, 10 mM Mg-EGTA pH 7.3. In 100 μL reaction system, 1300 to 1500 ng/μL final concentration of Normal Human Serum (CompTech) was incubated with compound for 15 min at 37° C. Then 2×10^6 cells/well of chicken or rabbit erythrocytes in assay buffer were added and incubated for an additional 60 min at 37° C. Positive control (100% lysis) consists of serum and RBC, and negative control (0% lysis) consists of assay buffer and RBC only. Samples were centrifuged at 2000 g for 5 min, and supernatants collected. Optical density of the supernatant is monitored at 414 nm using Synergy 2 (BioTek). Percentage lysis in each sample is calculated relative to positive control (100% lysis).
Table 3 discloses the inhibitory activity of the compounds provided herein in the hemolysis assay.

[2] = biological target: T1, human complement factor D (Homo sapiens, UniProt P00746); assay: In vitro enzyme inhibition (Z-Lys-SBzl/DTNB absorbance assay); format: biochemical; details: Complement Factor D (R&D Systems), substrate Z-Lys-SBzl, A405 nm; read-out: CFD IC50
T1 construct: purchased R&D Systems 1824-SE
T1 sequence (P00746 26-253): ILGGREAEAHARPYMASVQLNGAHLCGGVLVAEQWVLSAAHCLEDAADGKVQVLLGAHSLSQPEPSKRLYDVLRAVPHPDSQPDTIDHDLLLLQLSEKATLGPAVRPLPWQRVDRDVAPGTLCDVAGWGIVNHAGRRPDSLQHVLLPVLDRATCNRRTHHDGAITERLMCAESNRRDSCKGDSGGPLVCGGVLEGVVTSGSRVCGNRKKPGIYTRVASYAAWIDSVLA
How it was run: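 Factor D (6.25 ng/μL before addition) preincubated 5 min RT with compound (8 points from 50 μM, 6-fold, 0.5% DMSO final) in 50 mM Tris/HCl pH 7.5, 1 M NaCl, then Z-Lys-SBzl/DTNB added (200 μM each before addition). A405 read kinetically every 30 s for 60 min; IC50 from variable-slope fit, controls with and without enzyme.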

SMILES | EC50 [1] [nM] | IC50 [2] [nM]
CC(=O)c1nn(CC(=O)N2[C@@H]3CC[C@@H](C3)[C@H]2C(=O)Nc2cccc(Cl)n2)c2ccccc12 [Example 80, (1R,3S,4S)-2-(2-(3-acetyl-1H-indazol-1-yl)acetyl)-N-(6-chloropyridin-2-yl)-2-azabicyclo[2.2.1]heptane-3-carboxamide] | 100 to 1000 | < 100
NC(=O)c1nn(CC(=O)N2C(C(=O)NCc3cccc(Cl)c3F)[C@@H]3C[C@@H](O)[C@H]2[C@H]3O)c2ccccc12 (stereo partly drawn) [Example 152, 1-(2-((1S,4S,6R,7S)-3-((3-chloro-2-fluorobenzyl)carbamoyl)-6,7-dihydroxy-2-azabicyclo[2.2.1]heptan-2-yl)-2-oxoethyl)-1H-indazole-3-carboxamide] | 100 to 1000 | 100 to 1000
NC(=O)c1nn(CC(=O)N2CC[C@H]2C(=O)NCc2cccc(Cl)c2F)c2cnccc12 [Example 189, (S)-1-(2-(2-((3-chloro-2-fluorobenzyl)carbamoyl)azetidin-1-yl)-2-oxoethyl)-1H-pyrazolo[3,4-c]pyridine-3-carboxamide] | 100 to 1000 | < 100
NC(=O)c1nn(CC(=O)N2C3CCC(C3)[C@H]2C(=O)Nc2cccc(Cl)n2)c2ccc(C3CC3)cc12 (stereo partly drawn) [Example 11, 1-(2-((3S)-3-((6-chloropyridin-2-yl)carbamoyl)-2-azabicyclo[2.2.1]heptan-2-yl)-2-oxoethyl)-5-cyclopropyl-1H-indazole-3-carboxamide] | 1000 to 10000 | 100 to 1000
CC(=O)c1nn(CC(=O)N2[C@@H]3CC[C@@H](C3)[C@H]2C(=O)Nc2cccc(Cl)n2)c2cnccc12 [Example 66, (1R,3S,4S)-2-(2-(3-acetyl-1H-pyrazolo[3,4-c]pyridin-1-yl)acetyl)-N-(6-chloropyridin-2-yl)-2-azabicyclo[2.2.1]heptane-3-carboxamide] | 100 to 1000 | 100 to 1000
NC(=O)c1nn(CC(=O)N2[C@@H]3CC[C@@H](C3)[C@H]2C(=O)Nc2cccc(Cl)n2)c2cc(CO)ccc12 [Example 125, 1-(2-((1R,3S,4S)-3-((6-chloropyridin-2-yl)carbamoyl)-2-azabicyclo[2.2.1]heptan-2-yl)-2-oxoethyl)-6-(hydroxymethyl)-1H-indazole-3-carboxamide] | 100 to 1000 | 100 to 1000
COc1ccc(Cl)nc1NC(=O)[C@@H]1[C@H]2CC[C@H](C2)N1C(=O)Cn1nc(C(N)=O)c2ccccc21 [Example 96, 1-(2-((1R,3S,4S)-3-((6-chloro-3-methoxypyridin-2-yl)carbamoyl)-2-azabicyclo[2.2.1]heptan-2-yl)-2-oxoethyl)-1H-indazole-3-carboxamide] | < 100 | < 100
NC(=O)c1nn(CC(=O)N2[C@@H]3CC[C@@H](C3)[C@H]2C(=O)Nc2cccc(Cl)n2)c2ccccc12 [Example 1, 1-(2-((1R,3S,4S)-3-((6-chloropyridin-2-yl)carbamoyl)-2-azabicyclo[2.2.1]heptan-2-yl)-2-oxoethyl)-1H-indazole-3-carboxamide] | 100 to 1000 | < 100
NC(=O)c1nn(CC(=O)N2[C@@H]3CC[C@@H](C3)[C@H]2C(=O)Nc2cccc(Cl)c2F)c2ccccc12 [Example 18, 1-(2-((1R,3S,4S)-3-((3-chloro-2-fluorophenyl)carbamoyl)-2-azabicyclo[2.2.1]heptan-2-yl)-2-oxoethyl)-1H-indazole-3-carboxamide] | 1000 to 10000 | 100 to 1000
NC(=O)n1cc(NC(=O)N2[C@@H]3CC[C@@H](C3)[C@H]2C(=O)Nc2cccc(Cl)n2)c2ccccc21 [Example 156, (1R,3S,4S)-N2-(1-carbamoyl-1H-indol-3-yl)-N3-(6-chloropyridin-2-yl)-2-azabicyclo[2.2.1]heptane-2,3-dicarboxamide] | 100 to 1000 | 100 to 1000
NC(=O)c1nn(CC(=O)N2[C@@H]3CC[C@@H](C3)[C@H]2C(=O)Nc2cncc(Cl)n2)c2ccccc12 [Example 59, 1-(2-((1R,3S,4S)-3-((6-chloropyrazin-2-yl)carbamoyl)-2-azabicyclo[2.2.1]heptan-2-yl)-2-oxoethyl)-1H-indazole-3-carboxamide] | 100 to 1000 | < 100
NC(=O)c1nn(CC(=O)N2[C@@H]3CC[C@@H](C3)[C@H]2C(=O)Nc2cccc(Cl)n2)c2ccc(C3CC3)cc12 [Example 56, 1-(2-((1R,3S,4S)-3-((6-chloropyridin-2-yl)carbamoyl)-2-azabicyclo[2.2.1]heptan-2-yl)-2-oxoethyl)-5-cyclopropyl-1H-indazole-3-carboxamide 2,2,2-trifluoroacetate] | 100 to 1000 | 100 to 1000
NC(=O)c1nn(CC(=O)N2[C@H](C(=O)Nc3cccc(Cl)n3)C[C@@H]3CCC[C@@H]32)c2ccc(F)cc12 [Example 169, 1-(2-((2S,3aS,6aS)-2-((6-chloropyridin-2-yl)carbamoyl)hexahydrocyclopenta[b]pyrrol-1(2H)-yl)-2-oxoethyl)-5-fluoro-1H-indazole-3-carboxamide] | 100 to 1000 | 100 to 1000
NC(=O)c1nn(CC(=O)N2[C@@H]3CC[C@@H](C3)[C@H]2C(=O)Nc2cccc(Cl)n2)c2cc(C(=O)O)ccc12 [Example 123, 3-carbamoyl-1-(2-((1R,3S,4S)-3-((6-chloropyridin-2-yl)carbamoyl)-2-azabicyclo[2.2.1]heptan-2-yl)-2-oxoethyl)-1H-indazole-6-carboxylic acid] | < 100 | < 100
NC(=O)c1nn(CC(=O)N2[C@@H]3CC[C@@H](C3)[C@H]2C(=O)Nc2cc(C(=O)O)cc(Cl)n2)c2ccccc12 [Example 104, 2-((1R,3S,4S)-2-(2-(3-carbamoyl-1H-indazol-1-yl)acetyl)-2-azabicyclo[2.2.1]heptane-3-carboxamido)-6-chloroisonicotinic acid] | < 100 | < 100
NC(=O)n1nc(CC(=O)N2CC[C@H]2C(=O)NCc2cccc(Cl)c2F)c2ccccc21 [Example 188, (S)-3-(2-(2-((3-chloro-2-fluorobenzyl)carbamoyl)azetidin-l-yl)-2-oxoethyl)-1H-indazole-1-carboxamide] | 100 to 1000 | < 100
CC(=O)c1nn(CC(=O)N2CC[C@H]2C(=O)NCc2cccc(Cl)c2F)c2ccccc12 [Example 190, (S)-1-(2-(3-acetyl-1H-indazol-1-yl)acetyl)-N-(3-chloro-2-fluorobenzyl)azetidine-2-carboxamide] | < 100 | < 100
Cc1cc(Cl)nc(NC(=O)[C@@H]2[C@H]3CC[C@H](C3)N2C(=O)Cn2nc(C(N)=O)c3ccccc32)c1 [Example 77, 1-(2-((1R,3S,4S)-3-((6-chloro-4-methylpyridin-2-yl)carbamoyl)-2-azabicyclo[2.2.1]heptan-2-yl)-2-oxoethyl)-1H-indazole-3-carboxamide] | 100 to 1000 | 100 to 1000
NC(=O)c1nn(CC(=O)N2[C@@H]3CC[C@@H](C3)[C@H]2C(=O)Nc2cccc(Br)n2)c2ccccc12 [Example 65, 1-(2-((1R,3S,4S)-3-((6-bromopyridin-2-yl)carbamoyl)-2-azabicyclo[2.2.1]heptan-2-yl)-2-oxoethyl)-1H-indazole-3-carboxamide] | 100 to 1000 | < 100
COC(=O)c1ccc2c(C(N)=O)nn(CC(=O)N3[C@@H]4CC[C@@H](C4)[C@H]3C(=O)Nc3cccc(Cl)n3)c2c1 [Example 122, methyl 3-carbamoyl-1-(2-((1R,3S,4S)-3-((6-chloropyridin-2-yl)carbamoyl)-2-azabicyclo[2.2.1]heptan-2-yl)-2-oxoethyl)-1H-indazole-6-carboxylate] | 100 to 1000 | 100 to 1000
NC(=O)c1nn(CC(=O)N2[C@H](C(=O)Nc3cccc(Cl)n3)C[C@@H]3CCC[C@@H]32)c2ccccc12 [Example 159, 1-(2-((2S,3aS,6aS)-2-((6-chloropyridin-2-yl)carbamoyl)hexahydrocyclopenta[b]pyrrol-1(2H)-yl)-2-oxoethyl)-1H-indazole-3-carboxamide] | 100 to 1000 | 100 to 1000
NC(=O)c1nn(CC(=O)N2[C@H](C(=O)NCc3cccc(Cl)c3F)C[C@@H]3CCC[C@@H]32)c2ccccc12 [Example 157, 1-(2-((2S,3aS,6aS)-2-((3-chloro-2-fluorobenzyl)carbamoyl)hexahydrocyclopenta[b]pyrrol-1(2H)-yl)-2-oxoethyl)-1H-indazole-3-carboxamide] | 100 to 1000 | < 100
NC(=O)c1nn(CC(=O)N2[C@@H]3CC[C@@H](C3)[C@H]2C(=O)Nc2ccc(CO)c(Cl)n2)c2ccccc12 [Example 108, 1-(2-((1R,3S,4S)-3-((6-chloro-5-(hydroxymethyl)pyridin-2-yl)carbamoyl)-2-azabicyclo[2.2.1]heptan-2-yl)-2-oxoethyl)-1H-indazole-3-carboxamide] |  | 1000 to 10000
